According to US10632113B2, “Abuse-resistant drug formulations with built-in overdose protection” (KASHIV BIOSCIENCES, LLC, priority 2014, dated 2020):
Where a name gives a salt, the structure may show the parent alone.

How the values were obtained:
[1] = Binding studies using USP Apparatus I (naloxone to ion exchange polymer); assay type: physicochemical; settings: 1:1 molar naloxone:Amberlite IRP64, 500 mL 0.1 N HCl / 5 mM phosphate buffer pH 6.8
Procedure: The following experiment was done. • 1. Based on the 1:1 molar ratio of naloxone:Amberlite™ IRP64, take the required quantity of naloxone and Amberlite™ IRP64 blend in a capsule and add it to 500 mL of the medium (0.1 N HCl/5 mM Phosphate buffer, pH 6.8). • 2. Withdraw dissolution samples at 10, 30 and 60 mins. • 3. Centrifuge the samples at 3000 rpm for 10 mins and filter through fritted filter ([…]) to get the supernatant for analysis. The results are illustrated in FIG. 9.

[2] = Dissolution studies using USP Apparatus II, single vs multiple doses; assay type: physicochemical; settings: Type A + Type C granules in capsule, 250 ml medium pH 1.6, 10, 30, 60, 120 minutes

Row | SMILES | percentage of naloxone hydrochloride bonded to ion exchange polymer, multiple doses versus single dose [1] | percentage of drug released, multiple doses versus single dose [2]
1 | C=CCN1CC[C@]23c4c5ccc(O)c4O[C@H]2C(=O)CC[C@@]3(O)[C@H]1C5 [naloxone hydrochloride] | drastically increases | –
2 | COc1ccc2c3c1O[C@H]1C(=O)CC[C@@]4(O)[C@@H](C2)N(C)CC[C@]314.Cl [oxycodone hydrochloride] | – | drastically reduced
